Source: paper PMC5031696, “Synthesis, Biodistribution and In vitro Evaluation of Brain Permeable High Affinity Type 2 Cannabinoid Receptor Agonists [^11C]MA2 and [^18F]MA3” (Frontiers in Neuroscience, 2016)
Where two headings read alike, the source gives them in different places.

What was measured:
hCB2 [1] = molecular target: T1, hCB2 (Homo sapiens, UniProt P34972); assay: radioligand binding assay with [^3H]CP55940, hCB2
T1 construct: host or cells: CHO-K1 beta-arrestin cells
Method: (§1) CHO-K1 beta-arrestin cells (DiscoveRx, Fremont, CA) expressing hCB2, mouse CB2 (mCB2), and human CB1 (hCB1) were cultured in F-12 Nutrient Mixture (HAM) supplemented with 10% fetal bovine serum (FBS), 300 μg/mL hygromycin and 800 μg/mL geneticin (G418). Cells were incubated in a humidified atmosphere at 37°C with 5% CO2.
(§2) Stably transfected cells were treated for 24 h with 5 mM butyrate in growth medium before harvesting, followed by homogenization in 15 mmol/L Hepes, 0.3 mmol/L EDTA, 1 mmol/L EGTA, 2 mmol/L MgCl2, complete EDTA-free protease inhibitor (Roche Applied Science, Rotkreuz, Switzerland), pH 7.4 using a glass potter and centrifugation at 47,800 g at 4°C for 30 min. The pellet was then rehomogenized twice in the same buffer and centrifuged (47,800 g, 4°C, 30 min). The final pellet was then resuspended in 75 mmol/L Tris, 0.3 mmol/L EDTA, 1 mmol/L EGTA, 12.5 mmol/L MgCl2, 250 mmol/L sucrose, pH 7.4 at a protein concentration of 1 to 3 mg/mL, aliquoted, frozen on dry ice and stored at −80°C. Saturation binding was performed with 0.05 to 2.6 nM [^3H]CP55940 (Perkin Elmer) and 1.0 μg of membrane protein. CP55940 (10 μM) was used to define non-specific binding. More than 95% of the total binding signal was specific. Assay buffer consisted of 50 mmol/L Tris-HCl, 5 mmol/L MgCl2, 2.5 mmol/L EGTA, and 0.1% fatty acid-free BSA, pH 7.4. Assays were initiated by addition of membranes in a final volume of 250 μL/well. Mixtures were incubated for 3 h at room temperature and then vacuum filtered and rinsed with wash buffer (50 mmol/L Tris-HCl, 5 mmol/L MgCl2, 2.5 mmol/L EGTA, and 0.5% fatty acid-free BSA, pH 7.4) on a Filtermate cell harvester through Packard GF/B filters presoaked in 0.3% polyethylenimine.
(§3) For competition binding, membrane preparations were incubated with 0.3 nM [^3H]CP55940 in the presence or absence of increasing concentrations of ligands for 60 min at 30°C in a final volume of 0.2 mL of 50 mmol/L Tris-HCl, 5 mmol/L MgCl2, 2.5 mmol/L EGTA, 0.1% fatty acid-free BSA, and 1% DMSO, pH 7.4, buffer, gently shaking. Non-specific binding was defined with 10 μM CP55940. All binding reactions were terminated by vacuum filtration onto 0.5% polyethylenimine presoaked GF/B filter plates (Packard) followed by seven brief washes with 2 mL of ice-cold binding buffer containing 0.5% fatty acid-free BSA. Plates were dried at 50°C for 1 h and liquid scintillation counting was used to determine bound radiolabel. IC50 values and Hill slopes were determined by a four parameter logistic model using ActivityBase (ID Business Solution, Guilford, UK). pKi values were determined by the generalized Cheng-Prusoff equation (Yung-Chi and Prusoff, [1973]).

mCB2 [2] = molecular target: T2, mCB2 (Mus musculus, UniProt P47936); assay: functional cAMP assay, mCB2; assay type: cell-based
T2 construct: host or cells: CHO-K1 beta-arrestin cells
Method: as §1
(§4) cAMP was measured using cAMP-Nano-TRF detection kit (Roche Diagnostics, Penzberg, Germany). Cells were seeded 17–24 h prior to the experiment 3 × 10^4 cells per well in a black 96-well plate with flat clear bottom (Corning, Wiesbaden, Germany) in growth medium and incubated in 5% CO2 at 37°C in a humidified incubator. The growth medium was exchanged with Krebs Ringer bicarbonate buffer with 1 mmol/L 3-isobutyl-1-methylxanthine (IBMX), 0.1% fatty acid-free bovine serum albumin (BSA) and incubated at 30°C for 60 min. Agonist was added to a final assay volume of 100 μL and the mixture was incubated for 30 min at 30°C. The assay was stopped by the addition of 50 μL 3x lysis reagent and shaken for 2 h at room temperature. The time-resolved energy transfer was measured using an LF502 Nanoscan FLT (IOM, Berlin, Germany), equipped with a laser as excitation source. cAMP content was determined from the function of a standard curve spanning from 10 to 0.13 nmol/L cAMP.

hCB1 [3] = molecular target: T3, hCB1 (Homo sapiens, UniProt P21554); assay: radioligand binding assay with [^3H]CP55940, hCB1; settings: for Ki ratio hCB1/hCB2: selectivity
T3 construct: host or cells: CHO-K1 beta-arrestin cells
Method: as §1, §2, §3

hCB2 [4] = molecular target: T1, hCB2; assay: functional cAMP assay, hCB2; assay type: cell-based; settings: for functional behaviour in cAMP assay: hCB2
Method: as §1, §4

mCB2 [5] = molecular target: T2, mCB2; assay: radioligand binding assay with [^3H]CP55940, mCB2
Method: as §1, §2, §3

hCB1 [6] = molecular target: T3, hCB1; assay: functional cAMP assay, hCB1 versus hCB2; assay type: cell-based; settings: cAMP assays
Method: as §1, §4

[7] = competition with [^3H]CP55940, read-out: hCB2 Ki
[8] = CHO-K1 cells expressing mCB2, read-out: mCB2 cAMP EC50
[9] = competition with [^3H]CP55940, read-out: hCB1 Ki
[10] = CHO-K1 cells expressing hCB2, read-out: hCB2 cAMP EC50
[11] = competition with [^3H]CP55940, read-out: mCB2 Ki

T2 sequence (P47936 whole entry): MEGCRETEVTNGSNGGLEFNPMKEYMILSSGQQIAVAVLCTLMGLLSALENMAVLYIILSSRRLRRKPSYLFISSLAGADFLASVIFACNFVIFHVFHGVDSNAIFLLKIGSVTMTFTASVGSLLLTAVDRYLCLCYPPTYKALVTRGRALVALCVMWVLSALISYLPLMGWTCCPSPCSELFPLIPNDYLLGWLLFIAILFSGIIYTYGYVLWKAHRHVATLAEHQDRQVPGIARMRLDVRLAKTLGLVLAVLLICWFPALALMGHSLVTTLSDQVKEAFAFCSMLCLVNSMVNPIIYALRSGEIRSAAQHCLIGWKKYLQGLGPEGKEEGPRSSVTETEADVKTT
T1 sequence (P34972 whole entry): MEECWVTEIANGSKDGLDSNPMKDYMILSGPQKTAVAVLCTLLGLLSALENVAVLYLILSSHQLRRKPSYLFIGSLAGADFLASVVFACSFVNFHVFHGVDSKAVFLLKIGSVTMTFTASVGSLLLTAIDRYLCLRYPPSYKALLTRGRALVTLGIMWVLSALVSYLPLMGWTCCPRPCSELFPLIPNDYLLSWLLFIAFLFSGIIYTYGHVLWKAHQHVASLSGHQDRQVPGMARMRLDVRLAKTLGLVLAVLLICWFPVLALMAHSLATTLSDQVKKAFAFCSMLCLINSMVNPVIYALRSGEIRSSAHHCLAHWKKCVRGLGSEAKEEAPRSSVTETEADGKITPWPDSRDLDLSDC
T3 sequence (P21554 whole entry): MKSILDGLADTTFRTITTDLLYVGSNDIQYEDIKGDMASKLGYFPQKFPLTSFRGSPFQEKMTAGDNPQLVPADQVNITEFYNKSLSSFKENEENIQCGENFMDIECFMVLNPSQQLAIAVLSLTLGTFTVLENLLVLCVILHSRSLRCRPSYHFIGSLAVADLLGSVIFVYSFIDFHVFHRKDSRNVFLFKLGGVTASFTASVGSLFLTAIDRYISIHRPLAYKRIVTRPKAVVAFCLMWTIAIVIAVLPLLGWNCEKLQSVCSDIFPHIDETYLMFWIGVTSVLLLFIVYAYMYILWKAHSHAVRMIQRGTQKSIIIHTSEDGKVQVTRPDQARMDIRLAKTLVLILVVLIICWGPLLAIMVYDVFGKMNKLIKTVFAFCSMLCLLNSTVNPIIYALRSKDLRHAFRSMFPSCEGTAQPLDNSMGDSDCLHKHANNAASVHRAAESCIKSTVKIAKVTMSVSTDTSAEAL

Structure (SMILES) | Ki (hCB2 [1]; [7]) | mCB2 cAMP % eff (efficacy) (mCB2 [2]; CHO-K1 cells expressing mCB2) | EC50 (mCB2 [2]; [8]) | Ki (hCB1 [3]; [9]) | Ki ratio hCB1/hCB2 (hCB1 [3]) | hCB2 cAMP % eff (efficacy) (hCB2 [4]; CHO-K1 cells expressing hCB2) | EC50 (hCB2 [4]; [10]) | functional behaviour in cAMP assay (hCB2 [4]) | Ki (mCB2 [5]; [11]) | EC50 ratio hCB1/hCB2 (hCB1 [6]) | Ki (hCB2 [1]) | EC50 (mCB2 [2]) | Ki (hCB1 [3]) | EC50 (hCB2 [4]) | Ki (mCB2 [5]) | times higher hCB2 affinity compared to 12 (hCB2 [1]; Ki comparison) | times higher hCB2 affinity compared to MA2 (hCB2 [1]; Ki comparison) | times higher hCB2 affinity compared to NE40 (hCB2 [1]; Ki comparison)
Fc1ccc(-c2noc(CCCNc3cnc4ccc(OC(F)(F)F)cc4c3)n2)c(Cl)c1 [Compound 12, reference compound] | 2.8 nM | 100% | 0.18 nM | 568 nM | 202 | 100% | 0.15 nM | agonists | 4.6 nM | 1300 | – | – | – | – | – | – | – | –
COc1ccc2ncc(NCCCc3nc(-c4ccc(F)cc4Cl)no3)cc2c1 [MA2, N-(3-(3-(2-chloro-4-fluorophenyl)-1,2,4-oxadiazol-5-yl)propyl)-6-methoxyquinolin-3-amine] | – | 100% | – | – | 19 | 101% | – | agonists | – | 430 | 87 nM | 2 nM | 1610 nM | 3 nM | 241 nM | – | – | –
FCCOc1ccc2ncc(NCCCc3nc(-c4ccc(F)cc4Cl)no3)cc2c1 [MA3, 6-(2-Fluoroethoxy)-N-(3-(3-(2-chloro-4-fluorophenyl)-1,2,4-oxadiazol-5-yl)propyl)quinolin-3-amine] | 0.8 nM | 101% | 0.09 nM | 102 nM | 127 | 102% | 0.13 nM | agonists | 2.6 nM | 563 | – | – | – | – | – | about 4 | about 100 | 5
